Experimental data as given in patent US6541486B1, “Bis-benzimidazole compounds and analogs thereof for inhibiting cell death” (Elan Pharma International Ltd., priority 1999, dated 2003).
“Also recorded” adds a separate entry of the source.

Assays:
[1] = system: rat middle cerebral artery occlusion (MCAO) model of focal ischemia; assay: MCAO in vivo stroke model: ischemic, infarct and edema volumes; conditions: for Reducing post-ischemic damage (in words): rats; for % Protection, Cortical infarct volume / % Protection, Cortical penumbra / % Protection, Edema / % Protection, Subcortical infarct volume / % Protection, Subcortical penumbra / % Protection, Total infarct volume / % Protection, Total ischemic volume: rat
Method: Compounds were administered by either an IV (intravenous) or ICV (intracerebroventricular) route in the MCAO model, described above and in Example 18. The extent of ischemic damage in the absence and presence of compound was assessed by visualization of coronal brain slices. Conversion of 2,3,5-triphenyltetrazolium chloride (TTC) to formazan in normal tissue produces a red color. Unstained areas (white) constitute the infarct, whereas pink areas between white (infarction) and red stained areas (normal brain) define the ischemia penumbra. Preliminary studies confirmed that tissues stained pink contained mixed populations of living and dead cells.
Results are also illustrated in FIGS. 2-3 for ICV administration and FIGS. 4-5 for IV administration.
Adult male Wistar rats weighing 310-380 g were used. Animals were fasted overnight but allowed free access to water. Anesthesia was induced and maintained with 3% isoflurane in […]. Systemic blood pressure was recorded before, during and after middle cerebral artery occlusion (MCAO) and immediately before administering the test compound. Subjects received test compound SNX 912, 5 mg/kg ICV pre-MCAO, or 25 mg/kg IV immediately following reperfusion, after two hours MCAO, as compared to control subjects, which received deionized water. Temperature was controlled and recorded before, during and following reperfusion. After reperfusion, temperature was measured every hour for 4 hrs post-reperfusion.
All animals were subjected to 2 hr of MCAO using the intraluminal filament technique of Koizume et al. (1986) as modified by Zhao et al. (1994). A midline surgical incision was made to expose the right common, external and internal carotid arteries. The common cartotid, external carotid and occipital arteries were tightly ligated, and the internal carotid artery was temporarily closed with a microvascular clip. A small incision was made in the common carotid artery and a nylon monofilament was inserted into the internal carotid artery through the common carotid artery. The filament was then carefully advanced 19 mm cephalad to occlude the middle cerebral artery at its site of origin within the Circle of Willis. […] After 2 hr of MCAO, the animals were re-anesthetized with 1.5% halothane, and the occlude filament was withdrawn to allow reperfusion.
Because MCAO by the intraluminal filament technique can give rise to intra- and post-ischemia hyperthermia, rectal temperature was controlled by external heating and cooling for 6 hrs after initiating MCAO. Rectal temperature was maintained at 37.5+/−0.5° C.
Animals were killed 24 hr post-reperfusion by CO2 asphyxiation. Following asphyxiation, the brains were quickly removed and chilled in ice cold 0.9% saline for 10 min. To visualize the extent of ischemic damage, seven 2 mm thick coronal slices were cut from each brain with a tissue slicer beginning with 1 mm posterior to the anterior pole. The slices were immersed in a 0.9% saline solution containing 1.0% 2,3,5-tripheyltetrazolim chloride (TTC) and incubated at 37° C. for 30 minutes, and observed for the presence of formazan (red), which is produced by the reduction of TTC by endogenous dehydrogenase activity in normal living tissues.

[2] = system: Oxygen/Glucose Deprived RGCs (retinal ganglion cells); assay: Protection of oxygen/glucose deprived (OGD) retinal ganglion cells, EC50; conditions: overall judgement
Method: Each compound was added to control cells and to cells deprived of oxygen and glucose for the time period from 30 minutes prior to OGD, during OGD, and for 24 and 48 hours after OGD.
RGCs from postnatal day 8 (P8) Sprague-Dawley rats were purified as previously described (Barres et al., 1988; Meyer-Franke et al., 1995). Purified retinal ganglion cells were plated onto tissue culture plastic precoated with poly-D-lysine and merosin, and cultured in serum-free Neurobasal medium (Gibco) containing various supplements.
Approximately 5,000 purified RGCs were cultured in 96-well plates (Falcon), precoated with poly-D-lysine (PDL, 70 kD, 10 mg/ml; Sigma) and merosin (2 mg/ml; Gibco). The RGCs were cultured in serum-free Neurobasal medium (Brewer et al., 1993; Gibco) containing Sato-Bottenstein and B27 (Gibco) supplement, insulin (Sigma, 5 mg/ml), brain-derived neurotrophic factor (BDNF, 25 ng/ml; Preprotech), ciliary neurotrophic factor (CNTF, 20 ng/ml; Preprotech) and forskolin (10 mM, Sigma). The percentage of surviving cells was assessed at 3, 7, and 14 days by the MTT assay.
Retinal ganglion cells were grown in 96-well plates for 5 days in serum-free medium as described above. On the sixth day cells were washed three times in a salt solution, e.g. Earle's balanced salt solution (EBSS, Gibco), containing glucose for control cells, and lacking glucose for test cells (oxygen/glucose-deprived cells). Control cells were further incubated in a 5% CO2 incubator while OGD cells were deprived of oxygen in an anaerobic chamber (for 3 hours). Test compounds were added to control cells and OGD cells for the time period from 30 minutes prior to OGD, during OGD, and for 24 and 48 hours after OGD.
After 3 hours OGD, control and test cells were transferred to growth medium with glucose and cultured an additional 48 hours in a 5% CO2 incubator, followed by a determination of cell viability using MTT, propidium iodide and annexin assays.
For the cell viability assay, MTT was added to culture and incubated at 37° C. for 1 hr. […] Viable and dead cells are counted by bright field microscopy at various times, e.g. 24, 48, or 72 hours after oxygen/glucose and/or growth factor deprivation. All values are reported as the mean (average) +/− the standard error of the mean (SEM) for at least three replicate cultures.

[3] = system: Oxygen/Glucose Deprived Cardiac Myocytes; assay: Protection of oxygen/glucose deprived cardiac myocytes; type: cell-based
Method: The hypoxic cardiac myocyte (CM) has been used as a simplified model of myocardial ischemia. In the present study, cultures of CM's were deprived of oxygen and glucose for 8 hours, then also exposed to 24-48 hours reoxygenation. It is known that reperfusion of the damaged areas can be one of the major mechanisms of myocardial cellular injury. […] Cell survival was quantitated as described above.

[4] = system: OGD cells (retinal ganglion cells); assay: Increase in survival of OGD cells at fixed concentrations (similar assay); type: cell-based, rat
[5] = IV (25 mg/kg) immediately following reperfusion after 2 h MCAO
[6] = 8 hrs OGD / 24 hrs reoxygenation
[7] = 8 hrs OGD / 48 hrs reoxygenation

With Nc1cccc2[nH]c(Cc3nc4ccccc4[nH]3)nc12 [SNX 912, 2-(benzimidazol-2′-yl)methyl-4-amino benzimidazole] the “Reducing post-ischemic damage (in words)” value ([1]; 5 mg/kg ICV) was “effective”, the “Reducing post-ischemic damage (in words)” value ([1]; 25 mg/kg IV) was “effective” and the “% Protection, Cortical infarct volume” value ([1]; ICV (5 mg/kg) pre-MCAO) was 76%. The “% Protection, Cortical penumbra” value ([1]; ICV (5 mg/kg) pre-MCAO) was 30%, the “% Protection, Edema” value ([1]; ICV (5 mg/kg) pre-MCAO) was 80% and the “% Protection, Subcortical infarct volume” value ([1]; ICV (5 mg/kg) pre-MCAO) was 75%. The “% Protection, Subcortical penumbra” value ([1]; ICV (5 mg/kg) pre-MCAO) was 7%, the “% Protection, Total infarct volume” value ([1]; ICV (5 mg/kg) pre-MCAO) was 76% and the “% Protection, Total ischemic volume” value ([1]; ICV (5 mg/kg) pre-MCAO) was 47%. For the same compound, the “% Protection, Cortical infarct volume” value [1, 5] was 53%, the “% Protection, Cortical penumbra” value [1, 5] was 10% and the “% Protection, Edema” value [1, 5] was 26%. The “% Protection, Subcortical infarct volume” value [1, 5] was 55%, the “% Protection, Subcortical penumbra” value [1, 5] was 18% and the “% Protection, Total infarct volume” value [1, 5] was 55%. The “% Protection, Total ischemic volume” value [1, 5] was 32%, the “Effectiveness in protecting OGD RGCs (in words, from Tables 5 and 6)” value [2] was “more effective overall than the unsubstituted compound” and the EC50 [3, 6] was 310 nM. The “TI (therapeutic index)” value [3, 6] was greater than 30, the EC50 [3, 7] was 55 nM and the “TI (therapeutic index)” value [3, 7] was greater than 200. For the same compound, the “Protection of cardiac myocytes from apoptotic cell death (in words)” value ([3]; compared to untreated OGD cells, dose dependent, nanomolar concentrations) was “protected the cardiac myocytes from apoptotic cell death; also recorded: effective”, the “Percent Increase in Survival over OGD Control Cells” value (from here on “Percent Increase in Survival”) ([4]; Concn 0.001 μM) was “++ (50%-100% increase)” and the “Percent Increase in Survival” value ([4]; Concn 0.01 μM) was “++ (50%-100% increase)”. The “Percent Increase in Survival” value ([4]; Concn 0.1 μM) was “++ (50%-100% increase)”, the “Percent Increase in Survival” value ([4]; Concn 1 μM) was “+++ (>100% increase)” and the “Percent Increase in Survival” value ([4]; Concn 10 μM) was “+++ (>100% increase)”.
